According to PubChem BioAssay AID1117337 (Cheminformatics & Chemogenomics Research Group (CCRG), …, 2015):
pIC50: −log10 of the molar value. Calls of active or inactive are those of the source. The rule behind the calls is not given here.

Tested on: ADSC/ECFC co-culture, VEGF-stimulated, CD31 tube area
Experiment: inhibition of endothelial tube formation, dose response, imaging, VEGF stimulation, CD31 staining, tube area, IC50 (AID 1117337)

Structure (SMILES)	pIC50	IC50
C[C@@H]1C[C@@H]([C@H](O)CC2CC(=O)NC(=O)C2)C(=O)[C@@H](C)C1	5.94	
OCCN1CCN(CCCN2c3ccccc3Sc3ccc(C(F)(F)F)cc32)CC1		> 10 µM (inactive)
Cc1ccc(Nc2c(F)cccc2Cl)c(CC(=O)O)c1		> 10 µM (inactive)
CCCCN1CCCC1C(=O)Nc1c(C)cc(C)cc1C (stereo unspecified)		> 10 µM (inactive)
CN1CCN(CCCN2c3ccccc3Sc3ccc(S(=O)(=O)N(C)C)cc32)CC1		> 10 µM (inactive)
CC(C)=CCNc1ncnc2c1ncn2[C@@H]1O[C@H](CO)[C@@H](O)[C@H]1O	5.58	
[O-][n+]1ccccc1SSc1cccc[n+]1[O-]	6.14	
COC(=O)N[C@H](C(=O)N[C@@H](Cc1ccccc1)[C@@H](O)CN(Cc1ccc(-c2ccccn2)cc1)NC(=O)[C@@H](NC(=O)OC)C(C)(C)C)C(C)(C)C		> 10 µM (inactive)
Cc1ccc(C(=O)Oc2ccc(C(O)CNC(C)(C)C)cc2OC(=O)c2ccc(C)cc2)cc1 (stereo unspecified)		> 10 µM (inactive)
CCCCCN=C(N)N/N=C/c1c[nH]c2ccc(OC)cc12	5.50	
CC[C@@H]([C@H](C)O)n1ncn(-c2ccc(N3CCN(c4ccc(OC[C@@H]5CO[C@@](Cn6cncn6)(c6ccc(F)cc6F)C5)cc4)CC3)cc2)c1=O		6.46 µM (inactive)
CN1CCN(C2Cc3ccccc3Sc3ccc(Cl)cc32)CC1 (stereo unspecified)		5.23 µM (inactive)
CCOC(=O)NC(C)(C)Cc1ccc(Cl)cc1		> 10 µM (inactive)
Oc1c(Cl)cc(Cl)cc1Sc1cc(Cl)cc(Cl)c1O	5.75	
COc1ccc([C@@H]2Sc3ccccc3NC(=O)[C@@H]2O)cc1		> 10 µM (inactive)
OC[C@@H](O)[C@H](O)[C@H](O)[C@@H](O)CO		> 10 µM (inactive)
O=C(Nc1ccc([N+](=O)[O-])cc1)Nc1ccc([N+](=O)[O-])cc1		> 10 µM (inactive)
Clc1ccccc1C(c1ccccc1)(c1ccccc1)n1ccnc1	5.52	
Cc1nc2ccc(CN(C)c3ccc(C(=O)N[C@@H](CCC(=O)O)C(=O)O)s3)cc2c(=O)[nH]1	6.45	
Cc1c(C)c2c(c(C)c1O)CCC(C)(COc1ccc(CC3SC(=O)NC3=O)cc1)O2 (stereo unspecified)		5.14 µM (inactive)
C/C(=N\O)[C@@H](C)NCC(C)(C)CN[C@H](C)/C(C)=N/O		> 10 µM (inactive)

Structure (SMILES)	pIC50	IC50
Cc1cc(C(C#N)c2ccc(Cl)cc2)c(Cl)cc1NC(=O)c1cc(I)cc(I)c1O (stereo unspecified)		> 10 µM (inactive)
O=C1c2ccccc2C(=O)C1C(=O)C(c1ccccc1)c1ccccc1		> 10 µM (inactive)
CN(C)CCCN1c2ccccc2Sc2ccc(Cl)cc21		> 10 µM (inactive)
CN[C@@H]1C[C@@H](c2ccc(Cl)c(Cl)c2)c2ccccc21		> 10 µM (inactive)
CCCCCCCCCCC[C@@H](C[C@@H]1OC(=O)[C@H]1CCCCCC)OC(=O)[C@H](CC(C)C)NC=O		> 10 µM (inactive)
C#C[C@]1(O)CC[C@H]2[C@@H]3CCc4cc(O)ccc4[C@H]3CC[C@@]21C		> 10 µM (inactive)
Oc1c(I)cc(I)c2cccnc12	5.62	
CCCCCCCCCCCCCCCC[N+](C)(C)CCN(Cc1ccc(OC)cc1)c1ncccn1	5.51	
COC(=O)Nc1nc2ccc(Sc3ccccc3)cc2[nH]1	6.68	
O=C(OCc1ccccc1)c1cccnc1		> 10 µM (inactive)
CCCCC(CC)COC(=O)CC(C(=O)OCC(CC)CCCC)S(=O)(=O)O (stereo unspecified)		> 10 µM (inactive)
C#C[C@]1(OC(C)=O)CC[C@H]2[C@@H]3CCC4=C/C(=N/O)CC[C@@H]4[C@H]3CC[C@@]21CC		> 10 µM (inactive)
NC(=O)c1cccnc1		> 10 µM (inactive)
CSc1ccc(/C=C2/C(C)=C(CC(=O)O)c3cc(F)ccc32)cc1		> 10 µM (inactive)
CC(C)=CCOc1ccc(/C=C/C(=O)c2ccc(OCC=C(C)C)cc2OCC(=O)O)cc1		> 10 µM (inactive)
CC1=C(/C=C/C(C)=C/C=C/C(C)=C/C(=O)Nc2ccc(O)cc2)C(C)(C)CCC1	5.87	
O=c1oc2c(O)c(O)cc3c(=O)oc4c(O)c(O)cc1c4c23		> 10 µM (inactive)
CC(=O)N(O)CCCCCNC(=O)CCC(=O)N(O)CCCCCNC(=O)CCC(=O)N(O)CCCCCN	5.34	
Oc1ccc(Cl)cc1Cc1cc(Cl)ccc1O	5.63	
Nc1c2ccccc2nc2ccccc12		> 10 µM (inactive)
